Molecular target: Serine/threonine-protein kinase B-raf [V600E] (Homo sapiens, UniProt P15056, V600E)
Test: Biochemical activity
Procedure: Assays for biochemical and cell based activity are known in the art, for example, as described in PCT publication WO 2007/002433, the disclosure of which is hereby incorporated by reference as it relates to such assays. For example, the biochemical activity IC50 values are determined with respect to inhibition of B-Raf V600E kinase activity or p-Erk kinase activity, where inhibition of phosphorylation of a peptide substrate is measured as a function of compound concentration. Compounds to be tested are diluted in dimethyl sulfoxide to a concentration of 0.1 mM. These are serially diluted 15 uL into 30 uL of dimethyl sulfoxide seven times in 96 well plates for a total of 8 dilution points, and for each dilution point 1 uL is added to a well of an assay plate. Plates are prepared such that each well in a 384 well plate contains 1 uL of compound in 10 uL volume with 0.1 ng Raf enzyme (i.e. any of B-Raf, c-Raf-1 or B-Raf V600E, Upstate Biotechnology or prepared by methods known to one of skill in the art), 50 mM HEPES, pH 7.0, 50 mM NaCl, 2 mM MgCl2, 1 mM MnCl2, 0.01% Tween-20, 1 mM DTT, and 100 nM biotin-MEK1 as substrate. The reaction is started with addition of 10 uL of 200 uM ATP (i.e. final 100 uM ATP). After incubation of the kinase reaction for 45 minutes at room temperature, 5 uL/well of Stop Solution is added (25 mM Hepes pH 7.5, 100 mM EDTA, 0.01% BSA with donor beads (Streptavidin coated beads, Perkin Elmer), acceptor beads (Protein A coated, Perkin Elmer), and anti phosphor MEK1/2 antibody (CellSignal), each at final concentration 10 ug/mL).

Serine/threonine-protein kinase B-raf [V600E], sequence (P15056 2-766 V600E limits assumed): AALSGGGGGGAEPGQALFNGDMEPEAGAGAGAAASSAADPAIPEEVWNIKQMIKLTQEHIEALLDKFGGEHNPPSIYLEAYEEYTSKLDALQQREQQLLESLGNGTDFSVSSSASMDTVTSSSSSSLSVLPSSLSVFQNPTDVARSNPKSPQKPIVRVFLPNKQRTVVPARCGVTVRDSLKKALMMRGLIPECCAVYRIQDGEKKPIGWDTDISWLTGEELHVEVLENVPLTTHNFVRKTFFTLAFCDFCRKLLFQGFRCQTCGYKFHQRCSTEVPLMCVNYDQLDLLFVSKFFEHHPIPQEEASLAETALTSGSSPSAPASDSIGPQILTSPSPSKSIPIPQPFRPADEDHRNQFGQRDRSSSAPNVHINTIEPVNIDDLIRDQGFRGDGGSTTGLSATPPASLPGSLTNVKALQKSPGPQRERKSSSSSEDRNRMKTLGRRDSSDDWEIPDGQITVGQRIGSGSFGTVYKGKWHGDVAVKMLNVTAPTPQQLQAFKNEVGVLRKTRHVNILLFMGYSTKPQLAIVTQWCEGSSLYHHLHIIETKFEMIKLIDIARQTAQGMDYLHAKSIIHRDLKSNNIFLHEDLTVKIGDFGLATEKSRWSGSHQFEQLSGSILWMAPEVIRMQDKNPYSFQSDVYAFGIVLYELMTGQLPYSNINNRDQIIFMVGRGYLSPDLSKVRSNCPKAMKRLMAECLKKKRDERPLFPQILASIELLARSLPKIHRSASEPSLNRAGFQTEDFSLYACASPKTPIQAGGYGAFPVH

SMILES	IC50 [nM]
O=C(c1c(F)ccc(NS(=O)(=O)N2CCCC2)c1F)c1c[nH]c2ncc(I)cc12	< 100
CNS(=O)(=O)Nc1cccc(C(=O)c2c[nH]c3ncc(-c4cnc(OC)nc4)cc23)c1F	> 100
CCN(C)S(=O)(=O)Nc1cccc(C(=O)c2c[nH]c3ncc(-c4cccnc4)cc23)c1F	< 100
CCN(C)S(=O)(=O)Nc1cccc(C(=O)c2c[nH]c3ncc(-c4ccc(C)nc4)cc23)c1F	< 100
CCN(C)S(=O)(=O)Nc1cccc(C(=O)c2c[nH]c3ncc(-c4ccc(F)cc4)cc23)c1F	< 100
CN(C)S(=O)(=O)Nc1cccc(C(=O)c2c[nH]c3ncc(-c4ccc(F)cc4)cc23)c1F	< 100
Cc1ccc(-c2cnc3[nH]cc(C(=O)c4cccc(NS(=O)(=O)N(C)C)c4F)c3c2)cn1 [US9624213, Compound P-0029]	< 100
CCN(C)S(=O)(=O)Nc1cccc(C(=O)c2c[nH]c3ncc(C#N)cc23)c1F [US9624213, Compound P-0039]	< 100
COc1ncc(-c2cnc3[nH]cc(C(=O)c4cccc(NS(=O)(=O)N5CCCC5)c4F)c3c2)c(OC)n1 [US9624213, Compound P-0044]	< 100
CC(C)CN(C)S(=O)(=O)Nc1cccc(C(=O)c2c[nH]c3ncc(I)cc23)c1F [US9624213, Compound P-0070]	> 100
CCC(C)S(=O)(=O)Nc1cccc(C(=O)c2c[nH]c3ncc(-c4cnc(C5CC5)nc4)cc23)c1F (centres undefined) [US9624213, Compound P-0228]	< 100

Results, then the compound that gave them:

IC50 [nM]	SMILES
< 100	CCN(C)S(=O)(=O)Nc1ccc(F)c(C(=O)c2c[nH]c3ncc(-c4cnc(OC)nc4)cc23)c1F
< 100	CCN(C)S(=O)(=O)Nc1cccc(C(=O)c2c[nH]c3ncc(-c4ccc(Cl)cc4)cc23)c1F
< 100	CCN(C)S(=O)(=O)Nc1cccc(C(=O)c2c[nH]c3ncc(-c4cnc(OC)nc4)cc23)c1F
< 100	CN(C)c1ncc(-c2cnc3[nH]cc(C(=O)c4c(F)ccc(NS(=O)(=O)N5CCCC5)c4F)c3c2)cn1
< 100	COc1ncc(-c2cnc3[nH]cc(C(=O)c4cccc(NS(=O)(=O)N(C)C5CC5)c4F)c3c2)cn1
< 100	CN(C)S(=O)(=O)Nc1cccc(C(=O)c2c[nH]c3ncc(-c4ccc(C#N)cc4)cc23)c1F
< 100	CN(C)c1ccc(-c2cnc3[nH]cc(C(=O)c4cccc(NS(=O)(=O)N(C)C)c4F)c3c2)cn1
< 100	CCN(C)S(=O)(=O)Nc1cccc(C(=O)c2c[nH]c3ncc(-c4ccc(C#N)cc4)cc23)c1F
